# Measured values from patent US6737383B1, “Herbicidal oxadiazolidines” (priority 1999, dated 2004).
# Columns and labels:
# [1] = system: bedstraw; test: Test B pre/postemergence bedstraw; type: in vivo, Galium aparine
# Summary of the method: (§1)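 Test chemicals in a non-phytotoxic solvent mixture with surfactant were sprayed preemergence onto planted seeds and postemergence onto plants 2 to 18 cm tall (1- to 4-leaf stage). After twelve to sixteen days in a greenhouse, injury was visually rated against untreated controls from 0 (no effect) to 10 (complete control).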
# [2] = system: soybean; test: Test B pre/postemergence soybean; type: in vivo, Glycine max
# Summary of the method: as §1
# [3] = system: bamyardgrass; test: Test B flood test barnyardgrass; type: in vivo, Echinochloa crus-galli; settings: for Plant response rating, Barnyardgrass (0 to 10 scale, 0 is no effect, 10 is complete control): Rate 62 g/ha; for Plant response rating, Barnyardgrass (0 to 10 scale, 0 is no effect, 10 is complete control) / Barnyardgrass plant response rating (0 to 10 scale, 0 is no effect, 10 is complete control): visual evaluation after twelve to sixteen days; for Barnyardgrass plant response rating (0 to 10 scale, 0 is no effect, 10 is complete control): Rate 125 g/ha, under heading Pre-emergence
# Summary of the method: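 Each value is a visual injury score relative to controls, with 10 meaning complete control and 0 no effect. Evaluation took place twelve to sixteen days after the 2-leaf-stage plants were treated and kept in the greenhouse.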
# [4] = system: wild oat; test: Test B pre/postemergence wild oat; type: in vivo, Avena fatua
# Summary of the method: as §1
# [5] = Preemergence, Rate 62 g/ha, scale of 0 to 10 where 0 is no effect and 10 is complete control
# [6] = Preemergence, Rate 125 g/ha, scale of 0 to 10 where 0 is no effect and 10 is complete control
# [7] = Preemergence, Rate 250 g/ha, scale 0 to 10, 0 is no effect, 10 is complete control
# [8] = Preemergence, Rate 500 g/ha, scale 0 to 10, 0 is no effect, 10 is complete control
# [9] = Postemergence, Rate 250 g/ha, scale 0 to 10
# [10] = Postemergence, Rate 500 g/ha, scale of 0 to 10 where 0 is no effect and 10 is complete control
# [11] = Rate 62 g/ha, Postemergence, scale 0 to 10 (0 no effect, 10 complete control)
# [12] = Rate 125 g/ha, Postemergence, scale 0 to 10, 0 is no effect, 10 is complete control
# [13] = flood test species, Pre-emergence
# [14] = Rate 250 g/ha, Pre-emergence (flood test species), scale 0 to 10, 0 is no effect, 10 is complete control
# [15] = Rate 500 g/ha, Pre-emergence, flood test species, scale 0 to 10 (0 no effect, 10 complete control)
Structure (SMILES),"Plant response rating, Bedstraw [1, 5]","Plant response rating, Bedstraw [1, 6]","Soybean plant response rating [2, 9]","Plant response rating, Soybean [2, 5]","Plant response rating, Soybean [2, 6]","Soybean plant response rating [2, 7]","Soybean plant response rating [2, 8]","Soybean plant response rating [2, 11]","Soybean plant response rating [2, 12]","Plant response rating, Barnyardgrass (0 to 10 scale, 0 is no effect, 10 is complete control) [3, 13]","Barnyardgrass plant response rating (0 to 10 scale, 0 is no effect, 10 is complete control) ([3]; flood test species)","Barnyardgrass plant response rating [3, 14]","Barnyardgrass plant response rating [3, 15]","Wild oats plant response rating [4, 9]","Plant response rating, Wild oats [4, 5]","Plant response rating, Wild oats [4, 6]","Wild oats plant response rating [4, 7]","Wild oats plant response rating [4, 8]","Wild oats plant response rating [4, 11]","Wild oats plant response rating [4, 12]",also measured
CCc1nc(C)c(C(C)n2c(=O)on(C(=O)N(c3ccc(F)cc3)C(C)C)c2=O)s1 (stereo not shown) [Compound 449],0,0,2,0,0,0,2,0,1,0,0,0,0,0,0,0,0,0,0,0,"Bedstraw plant response rating [1, 7]: 0; Bedstraw plant response rating [1, 8]: 4; Soybean plant response rating [2, 10]: 2; Wild oats plant response rating [4, 10]: 4"
CC(C)N(C(=O)n1oc(=O)n(CO)c1=O)c1ccc(Cl)cc1 [Compound 457],,,1,0,0,0,0,0,0,0,0,0,0,0,0,0,0,0,0,0,"Bedstraw plant response rating [1, 7]: 0; Bedstraw plant response rating [1, 8]: 0; Bedstraw plant response rating [1, 11]: 0; Bedstraw plant response rating [1, 12]: 0"
CC[Si](C)(C)Cn1c(=O)on(C(=O)N(c2ccc(Cl)cc2)C(C)C)c1=O [Compound 460],0,0,4,0,0,0,0,3,3,0,0,0,0,0,0,0,0,0,0,0,"Bedstraw plant response rating [1, 10]: 8"
